PubChem BioAssay (NCI)
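These data come from cells grown in 96-well plates and exposed to compound for 48 hours at five concentrations. The concentration for full growth arrest is given as TGI.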

How the values were obtained:
Assay in all cases: DTP human tumour cell line panel, 48 h
HT29 colon = system: HT29 colon
SNB-75 CNS = system: SNB-75 CNS
T-47D breast = system: T-47D breast
NCI/ADR-RES ovarian = system: NCI/ADR-RES ovarian
OVCAR-8 ovarian = system: OVCAR-8 ovarian
NCI-H226 lung = system: NCI-H226 lung
MCF7 breast = system: MCF7 breast
U251 CNS = system: U251 CNS
SN12C renal = system: SN12C renal
MDA-MB-231 breast = system: MDA-MB-231 breast
OVCAR-3 ovarian = system: OVCAR-3 ovarian
CCRF-CEM leukemia = system: CCRF-CEM leukemia
MDA-MB-435 = system: MDA-MB-435
K-562 leukemia = system: K-562 leukemia
MOLT-4 leukemia = system: MOLT-4 leukemia
NCI-H460 lung = system: NCI-H460 lung
UO-31 renal = system: UO-31 renal
SK-MEL-5 melanoma = system: SK-MEL-5 melanoma
PC-3 prostate = system: PC-3 prostate
SF-295 CNS = system: SF-295 CNS
DU-145 prostate = system: DU-145 prostate
HCT-15 colon = system: HCT-15 colon
BT-549 breast = system: BT-549 breast
UACC-62 melanoma = system: UACC-62 melanoma
CAKI-1 renal = system: CAKI-1 renal
NCI-H23 lung = system: NCI-H23 lung
A498 renal = system: A498 renal
SF-539 CNS = system: SF-539 CNS
SK-MEL-28 melanoma = system: SK-MEL-28 melanoma
RXF 393 renal = system: RXF 393 renal
OVCAR-5 ovarian = system: OVCAR-5 ovarian
SW-620 colon = system: SW-620 colon
EKVX NSCLC = system: EKVX NSCLC
HOP-92 NSCLC = system: HOP-92 NSCLC
M14 melanoma = system: M14 melanoma
COLO 205 colon = system: COLO 205 colon
HCC-2998 colon = system: HCC-2998 colon
SF-268 CNS = system: SF-268 CNS
UACC-257 melanoma = system: UACC-257 melanoma
HOP-62 NSCLC = system: HOP-62 NSCLC
HCT-116 colon = system: HCT-116 colon
IGROV1 ovarian = system: IGROV1 ovarian
SK-OV-3 ovarian = system: SK-OV-3 ovarian
HS 578T breast = system: HS 578T breast
A549 NSCLC = system: A549 NSCLC
ACHN renal = system: ACHN renal
SNB-19 CNS = system: SNB-19 CNS
RPMI-8226 leukemia = system: RPMI-8226 leukemia
MDA-N = system: MDA-N
MALME-3M melanoma = system: MALME-3M melanoma
KM12 colon = system: KM12 colon
OVCAR-4 ovarian = system: OVCAR-4 ovarian
NCI-H522 lung = system: NCI-H522 lung
786-0 renal = system: 786-0 renal

COc1ccc(OC)c2cc(Cc3ccc(N(C)C)cc3)c(=O)c(Cc3ccc(N(C)C)cc3)cc12
TGI (HT29 colon): > 100 µM
TGI (SNB-75 CNS): > 100 µM
TGI (T-47D breast): > 100 µM
TGI (NCI/ADR-RES ovarian): > 100 µM
TGI (OVCAR-8 ovarian): > 100 µM
TGI (NCI-H226 lung): > 100 µM
TGI (MCF7 breast): > 100 µM
TGI (U251 CNS): > 100 µM
TGI (SN12C renal): > 100 µM
TGI (MDA-MB-231 breast): > 100 µM
TGI (OVCAR-3 ovarian): > 100 µM
TGI (CCRF-CEM leukemia): > 100 µM
TGI (MDA-MB-435): > 100 µM
TGI (K-562 leukemia): > 100 µM
TGI (MOLT-4 leukemia): > 100 µM
TGI (NCI-H460 lung): > 100 µM
TGI (UO-31 renal): > 100 µM
TGI (SK-MEL-5 melanoma): > 100 µM
TGI (PC-3 prostate): > 100 µM
TGI (SF-295 CNS): > 100 µM
TGI (DU-145 prostate): > 100 µM
TGI (HCT-15 colon): > 100 µM
TGI (BT-549 breast): > 100 µM
TGI (UACC-62 melanoma): > 100 µM
TGI (CAKI-1 renal): > 100 µM
TGI (NCI-H23 lung): > 100 µM
TGI (A498 renal): 96.2 µM
TGI (SF-539 CNS): > 100 µM
TGI (SK-MEL-28 melanoma): > 100 µM
TGI (RXF 393 renal): > 100 µM
TGI (OVCAR-5 ovarian): > 100 µM
TGI (SW-620 colon): > 100 µM
TGI (EKVX NSCLC): > 100 µM
TGI (HOP-92 NSCLC): > 100 µM
TGI (M14 melanoma): > 100 µM
TGI (COLO 205 colon): > 100 µM
TGI (HCC-2998 colon): > 100 µM
TGI (SF-268 CNS): > 100 µM
TGI (UACC-257 melanoma): > 100 µM
TGI (HOP-62 NSCLC): > 100 µM
TGI (HCT-116 colon): > 100 µM
TGI (IGROV1 ovarian): > 100 µM
TGI (SK-OV-3 ovarian): > 100 µM
TGI (HS 578T breast): 87.7 µM
TGI (A549 NSCLC): > 100 µM
TGI (ACHN renal): > 100 µM
TGI (SNB-19 CNS): > 100 µM
TGI (RPMI-8226 leukemia): 84.5 µM
TGI (MDA-N): > 100 µM
TGI (MALME-3M melanoma): > 100 µM
TGI (KM12 colon): > 100 µM
TGI (OVCAR-4 ovarian): > 100 µM
TGI (NCI-H522 lung): 89.9 µM
TGI (786-0 renal): > 100 µM

COC(=O)C(C)Sc1nc2cc(Cl)ccc2s1 (stereo not drawn)
TGI (HT29 colon): > 100 µM
TGI (SNB-75 CNS): > 100 µM
TGI (T-47D breast): > 100 µM
TGI (NCI/ADR-RES ovarian): > 100 µM
TGI (OVCAR-8 ovarian): > 100 µM
TGI (NCI-H226 lung): > 100 µM
TGI (MCF7 breast): > 100 µM
TGI (U251 CNS): > 100 µM
TGI (SN12C renal): > 100 µM
TGI (MDA-MB-231 breast): > 100 µM
TGI (OVCAR-3 ovarian): > 100 µM
TGI (CCRF-CEM leukemia): > 100 µM
TGI (MDA-MB-435): > 100 µM
TGI (K-562 leukemia): > 100 µM
TGI (MOLT-4 leukemia): > 100 µM
TGI (NCI-H460 lung): > 100 µM
TGI (UO-31 renal): > 100 µM
TGI (SK-MEL-5 melanoma): > 100 µM
TGI (PC-3 prostate): > 100 µM
TGI (SF-295 CNS): > 100 µM
TGI (DU-145 prostate): > 100 µM
TGI (HCT-15 colon): > 100 µM
TGI (BT-549 breast): > 100 µM
TGI (UACC-62 melanoma): > 100 µM
TGI (CAKI-1 renal): > 100 µM
TGI (NCI-H23 lung): > 100 µM
TGI (A498 renal): > 100 µM
TGI (SF-539 CNS): > 100 µM
TGI (SK-MEL-28 melanoma): > 100 µM
TGI (RXF 393 renal): > 100 µM
TGI (OVCAR-5 ovarian): > 100 µM
TGI (SW-620 colon): > 100 µM
TGI (EKVX NSCLC): > 100 µM
TGI (HOP-92 NSCLC): > 100 µM
TGI (M14 melanoma): > 100 µM
TGI (COLO 205 colon): > 100 µM
TGI (HCC-2998 colon): > 100 µM
TGI (SF-268 CNS): > 100 µM
TGI (UACC-257 melanoma): > 100 µM
TGI (HOP-62 NSCLC): > 100 µM
TGI (HCT-116 colon): > 100 µM
TGI (IGROV1 ovarian): > 100 µM
TGI (SK-OV-3 ovarian): > 100 µM
TGI (HS 578T breast): > 100 µM
TGI (A549 NSCLC): > 100 µM
TGI (ACHN renal): > 100 µM
TGI (SNB-19 CNS): > 100 µM
TGI (RPMI-8226 leukemia): > 100 µM
TGI (MDA-N): > 100 µM
TGI (MALME-3M melanoma): > 100 µM
TGI (KM12 colon): > 100 µM
TGI (OVCAR-4 ovarian): > 100 µM
TGI (NCI-H522 lung): > 100 µM
TGI (786-0 renal): > 100 µM
